# Assay results from article PMC11191095, “QSAR Reveals Decreased Lipophilicity of Polar Residues Determines the Selectivity of Antimicrobial Peptide Activity” (ACS Omega, 2024).
# Where a SMILES comes first, the peptide text is derived from it.
# Key:
# Test in all cases: microbe, parasite or virus in culture
# [1] = tested on: C. auris TDG 1912; assay type: cell-based, Candida auris; settings: C. auris TDG 1912
# In short: (§1)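 Peptides 128→2 μg/mL, 2-fold series; inoculum ~5 × 10^5 CFU/mL from overnight culture (OD600 0.01, mixed 1:1). MHB non-cation-adjusted for bacteria, RPMI 1640 + 2% glucose for fungi. 37 °C, 20 h, OD600. MIC50/MIC90 at 50%/90% inhibition; n ≥ 3.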
# [2] = tested on: S. aureus (MRSA) 1199B; assay type: cell-based, Staphylococcus aureus; settings: S. aureus (MRSA) 1199B (R)
# In short: as §1
# [3] = tested on: S. aureus (MRSA) NCTC 13616; assay type: cell-based, Staphylococcus aureus; settings: S. aureus (MRSA) NCTC 13616 (R)
# In short: as §1
# [4] = tested on: S. aureus (MSSA) ATCC 9144; assay type: cell-based, Staphylococcus aureus; settings: S. aureus (MSSA) ATCC 9144 (S)
# In short: as §1
# [5] = tested on: S. aureus (MRSA) USA300; assay type: cell-based, Staphylococcus aureus; settings: S. aureus (MRSA) USA300 (R)
# In short: as §1
# [6] = tested on: A. baumannii AYE; assay type: cell-based, Acinetobacter baumannii; settings: A. baumannii AYE (R)
# In short: as §1
# [7] = tested on: A. baumannii ATCC 17978; assay type: cell-based, Acinetobacter baumannii; settings: A. baumannii ATCC 17978 (S)
# In short: as §1
# [8] = tested on: E. coli NCTC 12923; assay type: cell-based, Escherichia coli; settings: E. coli NCTC 12923 (S)
# In short: as §1
# [9] = tested on: E. coli LEC001; assay type: cell-based, Escherichia coli; settings: E. coli LEC001 (R)
# In short: as §1
# [10] = tested on: C. albicans NCPF 3281; assay type: cell-based; settings: C. albicans NCPF 3281
# In short: as §1
# [11] = tested on: C. parapsilosis NCPF 3209; assay type: cell-based; settings: C. parapsilosis NCPF 3209
# In short: as §1
# [12] = tested on: C. glabrata NCPF 8018; assay type: cell-based; settings: C. glabrata NCPF 8018
# In short: as §1
# [13] = tested on: C. tropicalis NCPF 8760; assay type: cell-based; settings: C. tropicalis NCPF 8760
# In short: as §1
# [14] = tested on: C. krusei NCPF 3876; assay type: cell-based; settings: C. krusei NCPF 3876
# In short: as §1
# [15] = tested on: K. pneumoniae M6; assay type: cell-based, Klebsiella pneumoniae; settings: K. pneumoniae M6 (S)
# In short: as §1
# [16] = tested on: K. pneumoniae NCTC 13368; assay type: cell-based, Klebsiella pneumoniae; settings: K. pneumoniae NCTC 13368 (R)
# In short: as §1
# [17] = 50% growth inhibition, RPMI 1640 + 2% glucose, 37 °C, 20 h, OD600
# [18] = 90% growth inhibition, RPMI 1640 + 2% glucose, 37 °C, 20 h, OD600
# [19] = MHB, 37 °C, 20 h, OD600, min. three biological repeats
# [20] = MHB, ~5×10^5 CFU/mL, 37 °C, 20 h, OD600, min. three biological repeats
# [21] = 50% growth inhibition, RPMI 1640 + 2% glucose, 37 °C, 20 h
# [22] = 90% growth inhibition, RPMI 1640 + 2% glucose, 37 °C, 20 h
compound,measurement,setting,value
CC[C@H](C)[C@H](NC(=O)CNC(=O)[C@@H](N)CCCCN)C(=O)N[C@@H](CCCNC(=N)N)C(=O)NCC(=O)N[C@@H](Cc1ccc(O)cc1)C(=O)N[C@@H](CCCCN)C(=O)NCC(=O)NCC(=O)N[C@@H](Cc1ccc(O)cc1)C(=O)N[C@@H](CS)C(=O)N[C@@H](CCCCN)C(=O)NCC(=O)N[C@@H](C)C(=O)N[C@@H](Cc1ccccc1)C(=O)N[C@@H](CCCCN)C(=O)N[C@@H](CCC(N)=O)C(=O)N[C@H](C(=O)N[C@@H](CS)C(=O)N[C@@H](CCCCN)C(=O)N[C@@H](CS)C(=O)N[C@@H](Cc1ccc(O)cc1)C(N)=O)[C@@H](C)O [Osa] (H-KGIRGYKGGYCKGAFKQTCKCY-NH2; N-terminus assumed),Modal MIC50,[1]; [17],> 128 µg/mL
same,Modal MIC90,[1]; [18],> 128 µg/mL
same,Modal MIC50,[1]; shown in µM,> 51.7 µM
same,Modal MIC90,[1]; shown in µM,> 51.7 µM
same,Modal MIC,[2]; [19],> 128 µg/mL
same,Modal MIC,[2]; shown in µM,> 51.7 µM
same,Modal MIC,[3]; [19],> 128 µg/mL
same,Modal MIC,[3]; shown in µM,> 51.7 µM
same,Modal MIC,[4]; [19],> 128 µg/mL
same,Modal MIC,[4]; shown in µM,> 51.7 µM
same,Modal MIC,[5]; [19],> 128 µg/mL
same,Modal MIC,[5]; shown in µM,> 51.7 µM
same,Modal MIC,[6]; [19],> 128 µg/mL
same,Modal MIC,[6]; shown in µM,> 51.7 µM
same,Modal MIC,[7]; [19],> 128 µg/mL
same,Modal MIC,[7]; shown in µM,> 51.7 µM
same,Modal MIC,[8]; [20],> 128 µg/mL
same,Modal MIC,[8]; shown in µM,> 51.7 µM
same,Modal MIC,[9]; [19],> 128 µg/mL
same,Modal MIC,[9]; shown in µM,> 51.7 µM
same,Modal MIC50,[10]; [21],> 128 µg/mL
same,Modal MIC90,[10]; [22],> 128 µg/mL
same,Modal MIC50,[10]; shown in µM,> 51.7 µM
same,Modal MIC90,[10]; shown in µM,> 51.7 µM
same,Modal MIC50,[11]; [21],> 128 µg/mL
same,Modal MIC90,[11]; [22],> 128 µg/mL
same,Modal MIC50,[11]; shown in µM,> 51.7 µM
same,Modal MIC90,[11]; shown in µM,> 51.7 µM
same,Modal MIC50,[12]; [21],> 128 µg/mL
same,Modal MIC90,[12]; [22],> 128 µg/mL
same,Modal MIC50,[12]; shown in µM,> 51.7 µM
same,Modal MIC90,[12]; shown in µM,> 51.7 µM
same,Modal MIC50,[13]; [21],> 128 µg/mL
same,Modal MIC90,[13]; [22],> 128 µg/mL
same,Modal MIC50,[13]; shown in µM,> 51.7 µM
same,Modal MIC90,[13]; shown in µM,> 51.7 µM
same,Modal MIC50,[14]; [21],> 128 µg/mL
same,Modal MIC90,[14]; [22],> 128 µg/mL
same,Modal MIC50,[14]; shown in µM,> 51.7 µM
same,Modal MIC90,[14]; shown in µM,> 51.7 µM
same,Modal MIC,[15]; [19],> 128 µg/mL
same,Modal MIC,[15]; shown in µM,> 51.7 µM
same,Modal MIC,[16]; [19],> 128 µg/mL
same,Modal MIC,[16]; shown in µM,> 51.7 µM
CC(C)C[C@H](NC(=O)[C@H](CCCCN)NC(=O)[C@H](CO)NC(=O)[C@H](CCCCN)NC(=O)[C@@H](N)Cc1c[nH]c2ccccc12)C(=O)N[C@@H](C)C(=O)N[C@@H](CCCCN)C(=O)N[C@@H](CCCCN)C(N)=O [PS-PB-8a] (H-WKSKLAKK-NH2),Modal MIC50,[1]; [17],> 128 µg/mL
same,Modal MIC90,[1]; [18],> 128 µg/mL
same,Modal MIC50,[1]; shown in µM,> 127.2 µM
same,Modal MIC90,[1]; shown in µM,> 127.2 µM
same,Modal MIC,[2]; [19],> 128 µg/mL
same,Modal MIC,[2]; shown in µM,> 127.2 µM
same,Modal MIC,[3]; [19],> 128 µg/mL
same,Modal MIC,[3]; shown in µM,> 127.2 µM
same,Modal MIC,[4]; [19],> 128 µg/mL
same,Modal MIC,[4]; shown in µM,> 127.2 µM
same,Modal MIC,[5]; [19],> 128 µg/mL
same,Modal MIC,[5]; shown in µM,> 127.2 µM
same,Modal MIC,[6]; [19],> 128 µg/mL
same,Modal MIC,[6]; shown in µM,> 127.2 µM
same,Modal MIC,[7]; [19],> 128 µg/mL
same,Modal MIC,[7]; shown in µM,> 127.2 µM
same,Modal MIC,[8]; [20],> 128 µg/mL
same,Modal MIC,[8]; shown in µM,> 127.2 µM
same,Modal MIC,[9]; [19],> 128 µg/mL
same,Modal MIC,[9]; shown in µM,> 127.2 µM
same,Modal MIC50,[10]; [21],> 128 µg/mL
same,Modal MIC90,[10]; [22],> 128 µg/mL
same,Modal MIC50,[10]; shown in µM,> 127.2 µM
same,Modal MIC90,[10]; shown in µM,> 127.2 µM
same,Modal MIC50,[11]; [21],> 128 µg/mL
same,Modal MIC90,[11]; [22],> 128 µg/mL
same,Modal MIC50,[11]; shown in µM,> 127.2 µM
same,Modal MIC90,[11]; shown in µM,> 127.2 µM
same,Modal MIC50,[12]; [21],> 128 µg/mL
same,Modal MIC90,[12]; [22],> 128 µg/mL
same,Modal MIC50,[12]; shown in µM,> 127.2 µM
same,Modal MIC90,[12]; shown in µM,> 127.2 µM
same,Modal MIC50,[13]; [21],> 128 µg/mL
same,Modal MIC90,[13]; [22],> 128 µg/mL
same,Modal MIC50,[13]; shown in µM,> 127.2 µM
same,Modal MIC90,[13]; shown in µM,> 127.2 µM
same,Modal MIC50,[14]; [21],> 128 µg/mL
same,Modal MIC90,[14]; [22],> 128 µg/mL
same,Modal MIC50,[14]; shown in µM,> 127.2 µM
same,Modal MIC90,[14]; shown in µM,> 127.2 µM
same,Modal MIC,[15]; [19],> 128 µg/mL
same,Modal MIC,[15]; shown in µM,> 127.2 µM
same,Modal MIC,[16]; [19],> 128 µg/mL
same,Modal MIC,[16]; shown in µM,> 127.2 µM
